Results reported in patent US12030897B2, “Pyrrolo[2,1-f][1,2,4]triazine derivatives serving as selective HER2 inhibitors and application thereof” (MEDSHINE DISCOVERY INC., priority 2018, dated 2024).
“And” between values parts separate entries of the source, which are not always exact repeats. Identical values can stand only once.

Legend:
HER1 (ErbB1) = HER1 (ErbB1) (Homo sapiens (Human), UniProt P00533); experiment: In vitro enzyme activity, HER1 (ErbB1), [γ-33P]ATP filter assay; format: biochemical
Experimental: (§1) The object of this test is to detect the in vitro inhibitory activity of the compound against HER1 (ErbB1), HER2 (ErbB2) and HER4 (ErbB4). The enzymes used in this test were human ErbB1, ErbB2 and ErbB4.
(§2) Experimental Steps and Methods (96-Well Plate):
(§3) 5-fold diluted tested compound buffer (5 μL), peptide substrate poly(Glu, Tyr) (4:1) (2.5 μL), ErbB (4-20 ng, 2.5 μL), MnCl2 (50 mM, 1.25 μL), dH2O (3.75 μL) and [γ-^33P]ATP (10 μL) were added, and incubated at 30° C. for 10 min. 3% phosphoric acid was added to terminate the reaction, and 10 μL of the specimen was transferred to Filtermate A. The filter was washed with 75 mM phosphoric acid for three times and methanol once, and transferred to a sealed plastic bag, and a scintillation fluid mixture (4 mL) was added, The intensity of the emitted photons was detected on the scintillation luminescence counter. The photon intensity of the enzyme sample was compared with the photon intensity of the internal control sample, and the level of photon intensity reflected the strength of the tyrosine kinase activity.

HER2 (ErbB2) = HER2 (ErbB2) (Homo sapiens (Human), UniProt P04626); experiment: In vitro enzyme activity, HER2 (ErbB2), [γ-33P]ATP filter assay; format: biochemical
Experimental: as §1, with “ErbB4. Eurofins Pharma Discovery Service provided the activity detection method, and the results of the inhibitory activity of the tested compound against HER1, HER2 and HER4 were shown in Table 1.” for “ErbB4.”
as §2, §3

HER4 (ErbB4) = HER4 (ErbB4) (Homo sapiens (Human), UniProt Q15303); experiment: In vitro enzyme activity, HER4 (ErbB4), [γ-33P]ATP filter assay; format: biochemical
Experimental: as §1, with “ErbB4. Eurofins Pharma Discovery Service provided the activity detection method, and the results of the inhibitory activity of the tested compound against HER1, HER2 and HER4 were shown in Table 1.” for “ErbB4.”
as §2, §3

NCI-N87 cell = experiment: Cell proliferation inhibitory activity, Cell-Titer-Glo, NCI-N87; format: cell-based, human; conditions: 3 days incubation
Excerpt: (§4) Experiment object: to detect the inhibitory activity of the tested compound on cell proliferation.
(§5) Experimental principle: the luciferase in the Cell-Titer-Glo reagent uses luciferin, oxygen and ATP as reaction substrates to produce oxyluciferin and release energy in the form of light. Since the luciferase reaction requires ATP, the total amount of light produced by the reaction is proportional to the total amount of ATP that reflects cell viability.
(§6) Experimental Materials: • cell lines: NCI-N87 cell line (ATCC-CRL-5822); BT-474 cell line (ATCC-HTB-20) • Cell culture medium: RPMI 1640 medium (Invitrogen #22400-105; 10% serum Invitrogen #10090148; L-glutamine 1×, Gibco #25030-081; double antibody Hyclone #SV30010) • CellTiter-Glo® luminescence cell viability detection kit (Promega #G7573) • 384-well cell culture plate (Greiner #781090) • Compound plate (LABCYTE #LP-0200) • CO2 incubator (Thermo #371) • Vi-cell cell counter (Beckman Coulter) • Pipette (Eppendorf) • Pipette (Greiner) • Pipetting gun (Eppendorf) • Multifunctional microplate reader (Envision Reader) • ECHO Liquid-handling workstation (Labcyte-ECHO555)
(§7) The cells were inoculated in a 384-well plate with a density of 1000 cells per well and 25 μL per well. The edge wells were not inoculated with cells, and was supplemented with 25 μL of phosphate buffer.
(§8) The compound was added to the plate with 9 μL per well.
(§9) (2) The compound was diluted with ECHO liquid-handling workstation, and each well of the cell plate was added with 125 nL of compound. Each well of the cell wells of columns 2 and 23 was added with 125 nL of DMSO, and each well of the Media wells of columns 1 and 24 was added with 125 nL of DMSO.
(§10) (3) Each well of the cell plate was supplemented with 25 μL of culture medium, and the final volume in each well of the cell plate was 50 μL. The concentration of the compound was 10 μM, which was subjected to 3 fold dilution to obtain 10 concentrations. Each concentration was duplicated in left and right wells, and the final DMSO concentration was 0.25%.
(§11) 2.3 After adding the compound, it was centrifuged at 1000 rpm for 1 min. The cell plate was placed in a 37° C., 5% CO2 incubator for 3 days.
(§12) The cell plate was taken from the incubator and equilibrated at room temperature for 30 min. 25 μL of Cell-Titer-Glo reagent was added to each well, shaken for 1 min to make it thoroughly mixed, and centrifuged at 1000 rpm for 1 min. After 10 min, the plate was read on PerkinElmer Envision, and the […] reading time was set to 0.2 seconds.

BT-474 cell = experiment: Cell proliferation inhibitory activity, Cell-Titer-Glo, BT-474; format: cell-based; conditions: Homo sapiens, BT-474, 72 h; 3 days incubation
Excerpt: as §4, §5, §6, §7, §8, §9, §10, §11, §12

[1] = tested on: human breast cancer BT-474 cell subcutaneous xenograft tumor; experiment: In vivo efficacy, BT-474 subcutaneous xenograft tumor model; parameters: species or system BALB/c nude mice; conditions: BT-474 xenograft, 100 mg/kg
Experimental: Experiment object: to study the in vivo efficacy of the tested compound in human breast cancer BT-474 cell BALB/c nude mouse subcutaneous xenograft tumor model.
Experimental animals: female BALB/c nude mice, 6 to 8 weeks old, weight: 18 to 22 grams; Supplier Beijing Weitonglihua Laboratory Animal Technology Co., Ltd.
Human breast cancer BT474 cells were cultured in a monolayer in vitro. The culture conditions were: ATCC Hybri-Care Medium with 1.5 g/L sodium bicarbonate, 10% fetal bovine serum, 100 U/mL penicillin and 100 μg/mL streptomycin, and 37° C., 5% CO2 incubator. Conventional digestion treatment with pancreatin-EDTA for passage was carried out twice a week. When the cell saturation was 80% to 90%, and the number reached the requirement, the cells were collected, counted and inoculated.
0.2 mL (1×10^7 cells) of BT474 cells (with matrigel in a volume ratio of 1:1) were subcutaneously inoculated on the right back of each mouse. The grouping and administration were started when the average tumor volume reached about 168 mm^3. (Estrogen tablets were inoculated three days before cell inoculation).
7.3 the Preparation of the Tested Samples, Tumor Measurement, Experimental Index and Statistical Analysis were the Same as in Experimental Example 6.

Chain of HER4 (ErbB4) (Q15303 26-1308): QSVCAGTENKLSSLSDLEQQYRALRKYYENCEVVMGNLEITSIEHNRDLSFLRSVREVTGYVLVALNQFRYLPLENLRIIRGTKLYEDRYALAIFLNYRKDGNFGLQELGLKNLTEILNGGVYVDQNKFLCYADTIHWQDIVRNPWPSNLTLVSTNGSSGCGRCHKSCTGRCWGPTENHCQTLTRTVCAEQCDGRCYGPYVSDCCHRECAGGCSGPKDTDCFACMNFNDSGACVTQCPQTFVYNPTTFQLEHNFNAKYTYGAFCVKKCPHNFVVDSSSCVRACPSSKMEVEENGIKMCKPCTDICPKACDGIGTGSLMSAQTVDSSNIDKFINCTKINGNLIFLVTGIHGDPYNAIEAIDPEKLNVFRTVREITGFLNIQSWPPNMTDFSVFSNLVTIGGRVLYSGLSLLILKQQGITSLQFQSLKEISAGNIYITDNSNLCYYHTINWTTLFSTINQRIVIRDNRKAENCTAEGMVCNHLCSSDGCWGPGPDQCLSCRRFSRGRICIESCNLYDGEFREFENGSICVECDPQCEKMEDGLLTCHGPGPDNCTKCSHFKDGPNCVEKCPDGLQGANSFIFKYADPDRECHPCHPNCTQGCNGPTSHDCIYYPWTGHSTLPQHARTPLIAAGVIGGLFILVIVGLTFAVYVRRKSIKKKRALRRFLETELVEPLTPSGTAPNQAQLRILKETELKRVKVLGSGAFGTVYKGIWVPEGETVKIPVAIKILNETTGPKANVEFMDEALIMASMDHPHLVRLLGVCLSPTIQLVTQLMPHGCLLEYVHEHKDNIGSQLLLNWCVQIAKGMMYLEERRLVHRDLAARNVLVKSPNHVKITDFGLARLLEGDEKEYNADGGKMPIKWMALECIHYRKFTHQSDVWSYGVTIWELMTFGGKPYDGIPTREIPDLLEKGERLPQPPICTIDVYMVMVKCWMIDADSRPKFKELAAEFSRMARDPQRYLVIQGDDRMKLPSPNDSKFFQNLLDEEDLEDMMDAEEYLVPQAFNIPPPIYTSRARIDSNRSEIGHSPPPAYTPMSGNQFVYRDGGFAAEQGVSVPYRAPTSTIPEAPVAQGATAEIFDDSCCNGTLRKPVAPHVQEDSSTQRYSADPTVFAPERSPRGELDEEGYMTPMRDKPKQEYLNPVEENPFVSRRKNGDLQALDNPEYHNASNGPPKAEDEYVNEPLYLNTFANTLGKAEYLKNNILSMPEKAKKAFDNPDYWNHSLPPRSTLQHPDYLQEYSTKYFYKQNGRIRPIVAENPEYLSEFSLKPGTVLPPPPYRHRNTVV
Chain of HER1 (ErbB1) (P00533 25-1210): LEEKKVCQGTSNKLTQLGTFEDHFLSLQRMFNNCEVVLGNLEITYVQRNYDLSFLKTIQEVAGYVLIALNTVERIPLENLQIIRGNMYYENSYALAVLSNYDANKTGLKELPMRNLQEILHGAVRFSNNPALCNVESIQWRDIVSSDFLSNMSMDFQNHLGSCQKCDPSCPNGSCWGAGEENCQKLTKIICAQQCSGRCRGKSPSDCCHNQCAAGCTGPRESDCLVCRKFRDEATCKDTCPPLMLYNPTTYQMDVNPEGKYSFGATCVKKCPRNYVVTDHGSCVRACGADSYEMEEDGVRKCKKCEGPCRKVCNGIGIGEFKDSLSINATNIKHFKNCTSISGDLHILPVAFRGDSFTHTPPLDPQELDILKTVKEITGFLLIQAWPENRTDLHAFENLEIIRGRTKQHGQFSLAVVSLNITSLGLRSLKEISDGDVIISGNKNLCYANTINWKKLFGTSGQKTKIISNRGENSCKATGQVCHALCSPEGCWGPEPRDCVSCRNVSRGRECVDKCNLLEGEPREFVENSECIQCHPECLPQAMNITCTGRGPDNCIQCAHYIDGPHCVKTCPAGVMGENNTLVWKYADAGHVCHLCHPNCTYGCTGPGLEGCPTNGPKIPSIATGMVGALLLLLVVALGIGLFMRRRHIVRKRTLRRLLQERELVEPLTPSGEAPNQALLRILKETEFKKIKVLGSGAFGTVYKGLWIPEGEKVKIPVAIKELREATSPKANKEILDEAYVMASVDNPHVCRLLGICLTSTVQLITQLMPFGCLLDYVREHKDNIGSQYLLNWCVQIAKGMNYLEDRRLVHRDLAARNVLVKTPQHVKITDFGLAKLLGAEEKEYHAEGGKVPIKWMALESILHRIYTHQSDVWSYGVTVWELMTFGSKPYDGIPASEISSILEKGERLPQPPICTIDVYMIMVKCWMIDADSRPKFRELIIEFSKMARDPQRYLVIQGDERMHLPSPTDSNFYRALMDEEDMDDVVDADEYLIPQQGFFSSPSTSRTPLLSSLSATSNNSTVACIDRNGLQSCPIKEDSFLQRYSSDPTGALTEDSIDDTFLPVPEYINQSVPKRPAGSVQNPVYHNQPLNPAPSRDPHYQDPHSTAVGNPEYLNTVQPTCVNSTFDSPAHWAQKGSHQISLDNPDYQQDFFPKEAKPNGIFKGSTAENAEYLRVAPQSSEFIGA
Chain of HER2 (ErbB2) (P04626 23-1255): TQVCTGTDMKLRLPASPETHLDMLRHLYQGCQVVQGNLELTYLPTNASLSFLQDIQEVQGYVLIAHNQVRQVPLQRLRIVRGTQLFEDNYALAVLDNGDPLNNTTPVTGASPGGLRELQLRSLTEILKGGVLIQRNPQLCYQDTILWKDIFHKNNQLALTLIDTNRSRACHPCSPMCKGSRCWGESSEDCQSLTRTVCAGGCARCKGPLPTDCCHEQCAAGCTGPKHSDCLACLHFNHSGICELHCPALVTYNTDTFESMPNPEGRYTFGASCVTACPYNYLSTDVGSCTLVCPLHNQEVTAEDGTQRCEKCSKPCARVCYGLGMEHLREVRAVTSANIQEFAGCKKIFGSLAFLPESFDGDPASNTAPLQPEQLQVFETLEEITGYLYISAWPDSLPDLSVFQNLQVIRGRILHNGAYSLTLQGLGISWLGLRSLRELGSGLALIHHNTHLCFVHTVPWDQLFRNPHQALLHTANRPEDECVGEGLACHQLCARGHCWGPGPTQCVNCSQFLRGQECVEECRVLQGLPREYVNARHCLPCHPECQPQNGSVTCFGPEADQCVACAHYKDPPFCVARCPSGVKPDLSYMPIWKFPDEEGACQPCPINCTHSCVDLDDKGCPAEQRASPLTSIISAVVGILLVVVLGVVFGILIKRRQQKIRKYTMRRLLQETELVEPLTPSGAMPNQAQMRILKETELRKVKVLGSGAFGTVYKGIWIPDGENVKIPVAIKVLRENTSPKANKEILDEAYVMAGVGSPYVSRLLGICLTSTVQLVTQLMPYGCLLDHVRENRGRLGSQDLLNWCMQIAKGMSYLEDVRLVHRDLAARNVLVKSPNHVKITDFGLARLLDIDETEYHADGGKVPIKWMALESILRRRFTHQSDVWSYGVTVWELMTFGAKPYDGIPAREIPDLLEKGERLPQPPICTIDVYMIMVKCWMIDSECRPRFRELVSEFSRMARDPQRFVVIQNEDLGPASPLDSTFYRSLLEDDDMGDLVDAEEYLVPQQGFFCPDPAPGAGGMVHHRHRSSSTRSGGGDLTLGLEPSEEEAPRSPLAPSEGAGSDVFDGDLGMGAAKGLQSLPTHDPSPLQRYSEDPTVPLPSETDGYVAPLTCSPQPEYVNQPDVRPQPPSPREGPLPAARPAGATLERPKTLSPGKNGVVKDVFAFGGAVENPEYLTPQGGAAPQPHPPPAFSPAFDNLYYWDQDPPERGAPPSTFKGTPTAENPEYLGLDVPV

SMILES | IC50 (HER1 (ErbB1)) [µM] | IC50 (HER2 (ErbB2)) [µM] | IC50 (HER4 (ErbB4)) [µM] | IC50 (NCI-N87 cell; Homo sapiens, NCI-N87, 72 h) [µM] | IC50 (BT-474 cell) [µM] | IC50 (NCI-N87 cell) [µM] | RTV ([1]; day 20) | T/C ([1]; day 20) [%] | TGI ([1]; day 20) [%] | Tumor volume ([1]; day 20 (head: Day 21), mean ± SEM)
Cc1cc(Nc2ncnn3ccc(CN4CCNCC4)c23)ccc1Oc1ccn2ncnc2c1 [Example 1] | > 1 | 0.024 | > 1 |  |  |  |  |  |  | 
Cc1cc(Nc2ncnn3ccc(CN4CCCNCC4)c23)ccc1Oc1ccn2ncnc2c1 [Example 5] | > 1 | 0.016 | > 1 | 0.059 | 0.097 |  |  |  |  | 
Cc1cc(Nc2ncnn3ccc(CN4[C@@H]5CC[C@H]4C[C@H](O)C5)c23)ccc1Oc1ccn2ncnc2c1 [Example 6] | 0.743 | 0.018 | 0.15 | 0.004 |  |  |  |  |  | 
Cc1cc(Nc2ncnn3ccc(CN4C[C@H]5CC[C@@H](C4)[C@H]5N)c23)ccc1Oc1ccn2ncnc2c1 [Example 7] |  | 0.01 | > 1 | 0.027 |  |  |  |  |  | 
Cc1cc(Nc2ncnn3ccc(CN4[C@@H]5CC[C@H]4C[C@H](N)C5)c23)ccc1Oc1ccn2ncnc2c1 [Example 8] | 0.385 | 0.01 | 0.184 | 0.02 |  |  |  |  |  | 
Cc1cc(Nc2ncnn3ccc(CN4CCC(C)(N)CC4)c23)ccc1Oc1ccn2ncnc2c1 [Example 9] | 0.325 | 0.011 | 0.201 | 0.008 |  |  |  |  |  | 
Cc1cc(Nc2ncnn3ccc(CN4CC(O)C4)c23)ccc1Oc1ccn2ncnc2c1 [Example 12] |  |  |  | 0.052 |  |  |  |  |  | 
Cc1cc(Nc2ncnn3ccc(CN4CCC(O)CC4)c23)ccc1Oc1ccn2ncnc2c1 [Example 16] | 0.861 | 0.007 | 0.535 | 0.038 |  |  |  |  |  | 
COCCNC1CCN(Cc2ccn3ncnc(Nc4ccc(Oc5ccn6ncnc6c5)c(C)c4)c23)CC1 [Example 18] | 0.509 | 0.004 | > 1 | 0.065 |  |  |  |  |  | 
CCNC1CCN(Cc2ccn3ncnc(Nc4ccc(Oc5ccn6ncnc6c5)c(C)c4)c23)CC1 [Example 19] |  |  |  | 0.023 |  |  |  |  |  | 
COCC1(N)CCN(Cc2ccn3ncnc(Nc4ccc(Oc5ccn6ncnc6c5)c(C)c4)c23)CC1 [Example 20] | 0.167 | 0.007 | 0.23 | 0.009 | 0.088 |  |  |  |  | 
Cc1cc(Nc2ncnn3ccc(CN4CC[C@H](N)[C@@H](F)C4)c23)ccc1Oc1ccn2ncnc2c1 [Example 21] | 0.909 | 0.004 | > 1 |  |  | 0.019 |  |  |  | 
Cc1cc(Nc2ncnn3ccc(CN4CC[C@H](N)[C@@H](F)C4)c23)ccc1Oc1ccn2ncnc2c1 [Example 23] | 0.061 | 0.002 | 0.041 |  |  | 0.003 |  |  |  | 
CO[C@H]1CN(Cc2ccn3ncnc(Nc4ccc(Oc5ccn6ncnc6c5)c(C)c4)c23)CC[C@@H]1N [Example 25] | 0.207 | 0.002 | 0.369 |  |  | 0.014 |  |  |  | 
Cc1cc(Nc2ncnn3ccc(CC4CCC(N)CC4)c23)ccc1Oc1ccn2ncnc2c1 (stereo not shown) [Example 29] |  |  |  | 0.027 |  |  |  |  |  | 
NC1CCN(Cc2ccn3ncnc(Nc4ccc(Oc5ccn6ncnc6c5)c(C(F)(F)F)c4)c23)CC1 [Example 30] | 0.663 | 0.014 | > 1 |  |  |  |  |  |  | 
Cc1c(Oc2ccn3ncnc3c2)ccc(Nc2ncnn3ccc(CN4CCC(N)CC4)c23)c1F [Example 31] | 0.667 | 0.003 | > 1 | 0.031 |  |  |  |  |  | 
NC1CCN(Cc2ccn3ncnc(Nc4ccc(Oc5ccn6ncnc6c5)c(Cl)c4F)c23)CC1 [Example 32] | 0.284 | 0.002 | 0.356 | 0.011 | 0.087 |  | 0.61 ± 0.06 | 7.84 | 106.44 | 101 mm^3 and 101 ± 12 mm^3
